Assay results published in US4205086A, “Method for the treatment of gallstones” (priority 1977, dated 1980).
Where two headings read alike, the source gives them in different places.

Experiments:
[1] = cited from earlier work; for tolerability by patients / toxicity: organic solvents; for solubilizing capacity for gallstones: 100-200 mM solutions
[2] = treatment of gallstones by perfusion, general results in practice; format: in vivo, human (patient); settings: for solvency for the gallstones: in vivo; for results in treatment of gallstones: perfusion
Excerpt: In accordance with the method of the present invention a selected compound is perfused adjacent the gallstone. For the purposes herein, the term perfusion is intended to encompass the introduction of the compound in a manner that will cause the compound to pass over or around the subject gallstone, and includes equivalent terms such as infusion. The perfusion may be accomplished in accordance with normal procedures, and for example may be performed with a T-tube or an endoscope. The compound utilized by the present invention thereby contacts and gradually dissolves the gallstone. The response of the gallstone to this procedure may be followed, for example, by repeated cholangiograms.
A compound useful in accordance with the method of the present invention may also comprise a mixture of fatty acids and alcohol esters of fatty acids. Typically the fatty acid esters would be esters of the same fatty acids which exist separately in the solution, although such is not required. It is preferred that the fatty acids which exist either as themselves or in the ester form have from about 2 to about 12 carbon atoms, with from about 8 to about 10 carbon atoms being more preferred. In a most preferred embodiment of the present invention, the method comprises the perfusion of a compound having a mixture of fatty acids from about 8 to about 10 carbon atoms and alcohol esters, particularly glycerides, of fatty acids having from about 8 to about 10 carbon atoms. […].

[3] = studies evaluating the solubility of gallstones in a variety of compounds (Example 3); settings: observed for several days
Procedure: Studies are conducted to evaluate the solubility of gallstones in a variety of compounds.

[4] = viscosity of compounds used for perfusion (in words); format: physicochemical
Excerpt: It is also preferable that the compound not be excessively viscous at the perfusion temperature in view of the need for the compound to move through the perfusion equipment and to pass over or around the gallstone. The degree of viscosity which is tolerable, and the compounds therefore useful in the present invention, may be readily determined by experiment. […] Fatty acids useful in the present invention are generally those having short to medium carbon chain lengths, or from about 2 to about 12 carbon atoms. […]. As previously mentioned, these fatty acids which have melting points above body temperature, which is approximately 37° C., may be combined with the fatty acids which are liquid at body temperature to provide a liquid mixture having relatively low proportions of the higher fatty acids.

[5] = test comparing the solubility of gallstones in glycerol mono-octanoate and 200 mM sodium cholate (Example 2); set-up: species or system human (patient); settings: six days; sodium cholate 200 mM, mono-octanoate solution as in Example 1

CCOCC [ether]
tolerability by patients ([1]; prior art): poorly tolerated | toxicity ([1]; prior art): potentially toxic | results in dissolution of gallstones ([1]; prior art): without highly favorable results

CCCCCCCC(=O)OCC(O)CO (stereo not shown) [glycerol mono-octanoate]
tolerability and adverse symptoms or effects (human, in vivo): tolerated the procedure well and showed no adverse symptoms or effects | stones on follow-up after six days of perfusion (perfused at 5 ml per hour, after six days, patient): only two very small lucencies were apparent | stones on follow-up after 3 additional days of perfusion (perfused at 5 ml per hour, six days plus 3 additional days, patient): no evidence of the stones | results of similar clinical trials (similar clinical trials at the Mayo Clinic): equally good results | solvency for the gallstones [2]: high solvency | results in treatment of gallstones [2]: excellent results | results in treatment of gallstones ([2]; listed as mono-glyceride of octanoic acid): particularly excellent results | solubility of gallstones in the compound [3]: suitably soluble | viscosity [4]: low viscosity

propylene glycol mono-octanoate
solvency for the gallstones [2]: high solvency | results in treatment of gallstones [2]: particularly excellent results | viscosity [4]: low viscosity

Oxycholic acid
solubilizing capacity for gallstones ([1]; prior art): definite but low | bile acid diarrhea ([1]; in vivo): often with bile acid diarrhea | time to disappearance of distal common bile duct stones ([1]; uncontrolled studies): 1-4 weeks

glycerol di-decanoate
solubility of gallstones in the compound [3]: suitably soluble

C[C@H](CCC(=O)O)[C@H]1CC[C@H]2[C@@H]3[C@H](O)C[C@@H]4C[C@H](O)CC[C@]4(C)[C@H]3CC[C@]12C [Kenodeoxycholic acid]
results in dissolution of gallstones ([1]; prior art): more preferable, but also is relatively slow

CCCCCCCC(=O)OCC(COC(=O)CCCCCCC)OC(=O)CCCCCCC [glycerol tri-octanoate]
solubility of gallstones in the compound [3]: suitably soluble

heparin
fragmentation or dissolution of gallstones ([1]; in saline solution, prior art): function poorly

CCCCCCCCCC(=O)OCCCC [butanol decanoate]
solubility of gallstones in the compound [3]: suitably soluble

CCCCCCCC(=O)OCC [ethanol octanoate]
solubility of gallstones in the compound [3]: suitably soluble

C=C(C)[C@H]1CC=C(C)CC1 [d-limonene]
tolerability by patients ([1]; prior art): poorly tolerated | toxicity ([1]; prior art): potentially toxic | results in dissolution of gallstones ([1]; prior art): without highly favorable results

CCCCCCCC(=O)OCCO [ethylene glycol mono-octanoate]
solubility of gallstones in the compound [3]: suitably soluble

C[C@H](CCC(=O)O)[C@H]1CC[C@H]2[C@@H]3[C@H](O)C[C@@H]4C[C@H](O)CC[C@]4(C)[C@H]3C[C@H](O)[C@]12C [sodium cholate]
change in size of stones [5]: little or no apparent change | solubilizing capacity for gallstones ([1]; prior art): definite but low | bile acid diarrhea ([1]; uncontrolled studies): often with bile acid diarrhea | time to disappearance of distal common bile duct stones ([1]; uncontrolled studies): 1-4 weeks

ClC(Cl)Cl [chloroform]
tolerability by patients ([1]; prior art): poorly tolerated | toxicity ([1]; prior art): potentially toxic
